From ChEMBL document CHEMBL3085746, “Discovery of novel PTP1B inhibitors via pharmacophore-oriented scaffold hopping from Ertiprotafib” (Bioorg Med Chem Lett, 2013)

Columns and labels:
[1] = target: T1, Tyrosine-protein phosphatase non-receptor type 1 (Homo sapiens, UniProt P18031); experiment: Inhibition of GST-tagged recombinant human PTP1B
T1 sequence (P18031 whole entry): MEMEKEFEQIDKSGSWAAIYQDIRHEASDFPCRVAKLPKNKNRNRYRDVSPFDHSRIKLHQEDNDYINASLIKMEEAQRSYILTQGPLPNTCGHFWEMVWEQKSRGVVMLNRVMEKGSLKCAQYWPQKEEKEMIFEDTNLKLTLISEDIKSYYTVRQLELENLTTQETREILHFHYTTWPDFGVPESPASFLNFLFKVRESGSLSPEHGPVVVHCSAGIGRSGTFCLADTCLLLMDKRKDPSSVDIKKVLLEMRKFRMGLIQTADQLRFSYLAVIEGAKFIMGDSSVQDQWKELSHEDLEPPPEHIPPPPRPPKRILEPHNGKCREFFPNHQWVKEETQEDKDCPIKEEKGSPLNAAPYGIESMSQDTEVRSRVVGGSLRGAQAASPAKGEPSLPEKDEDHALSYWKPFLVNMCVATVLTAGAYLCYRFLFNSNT

[2] = target: T2, Tyrosine-protein phosphatase non-receptor type 1 (Homo sapiens) (UniProt P18031); experiment: Inhibition of GST-tagged recombinant human PTP1B at 100 uM
T2 sequence (whole entry): T1 sequence (P18031 whole entry)

| Structure (SMILES) | IC50 [1] [µM] | inhibition [2] [%] |
| --- | --- | --- |
| O=C(N[C@H](Cc1ccccc1)C(=O)O)c1ccc(CN(Cc2ccccc2)c2ccccc2)cc1 | 3.9 | 113 |
| O=C(O)[C@@H](Cc1ccccc1)Oc1ccc(-n2c3ccccc3c3ccccc32)cc1 | 40.3 | 98.4 |
| O=C(O)CC(CC(=O)c1ccccc1)c1ccc(Cn2c3ccccc3c3ccccc32)cc1 (stereo not given) | 10 | 98 |
| O=C(O)[C@@H](Cc1ccccc1)Oc1c(Br)cc(-c2c3ccccc3c(Br)c3oc4ccccc4c23)cc1Br | 0.87 | 100 |
| COc1ccc(N(Cc2ccc(O[C@H](Cc3ccccc3)C(=O)O)cc2)C(=O)c2ccc(C(=O)O)cc2)cc1 | – | < 40 |
| O=C(N[C@H](Cc1ccccc1)C(=O)O)c1ccc(C(=O)N(Cc2ccccc2)Cc2ccccc2)cc1 | – | < 40 |
| O=C(N[C@H](Cc1ccccc1)C(=O)O)c1ccc(Cn2c(Cc3ccccc3)nc3ccccc32)cc1 | – | 53.4 |
| O=C(N[C@H](Cc1ccccc1)C(=O)O)c1ccc(CN(c2ccccc2)c2ccccc2)cc1 | – | 83.8 |
| O=C(N[C@H](Cc1ccccc1)C(=O)O)c1ccc(CN(Cc2ccccc2)Cc2ccccc2)cc1 | 23.9 | 95 |
| O=C(O)CN(Cc1ccccc1)Cc1ccc(-n2c3ccccc3c3ccccc32)cc1 | – | 67.3 |
| O=C(O)CC(CC(=O)c1ccccc1)c1ccc(OC(c2ccccc2)c2ccccc2)cc1 (stereo not given) | – | 61 |
| O=C(O)CC(CC(=O)c1ccccc1)c1ccc(-n2c3ccccc3c3ccccc32)cc1 (stereo not given) | 10.2 | 106 |
| O=C(N[C@H](Cc1ccccc1)C(=O)O)c1ccc(Cn2c3ccccc3c3ccccc32)cc1 | – | 51.8 |

Next, values leading:

| IC50 [1] [µM] | inhibition [2] [%] | Structure (SMILES) |
| --- | --- | --- |
| 1.3 | 96.4 | O=C(O)CN(C(=O)Cc1ccccc1)c1ccc(CN(Cc2ccc3c(c2)OCO3)c2ccc(F)cc2)cc1 |
| – | 100 | COc1ccc(N(Cc2ccc(C(=O)N[C@H](Cc3ccccc3)C(=O)O)cc2)Cc2ccc3c(c2)OCO3)cc1 |
| – | 44.3 | O=C(O)CN(Cc1ccccc1)c1ccc(CN(Cc2ccc3c(c2)OCO3)c2ccc(F)cc2)cc1 |
| – | < 40 | COc1ccc(N(Cc2ccc3c(c2)OCO3)C(=O)c2ccc(C(CC(=O)O)CC(=O)c3ccccc3)cc2)cc1 (stereo not given) |
| – | < 40 | O=C(O)[C@@H](Cc1ccccc1)Oc1ccc(C(=O)N(Cc2ccc3c(c2)OCO3)c2ccc(F)cc2)cc1 |
| – | < 40 | COc1ccc(N(Cc2ccc3c(c2)OCO3)C(=O)c2ccc(CN(CC(=O)O)Cc3ccccc3)cc2)cc1 |
| 10.4 | 112 | O=C(O)[C@@H](Cc1ccccc1)Oc1ccc(CN(Cc2ccc3c(c2)OCO3)c2ccc(F)cc2)cc1 |
| – | 59.1 | O=C(O)CC(CC(=O)c1ccccc1)c1ccc(CN(Cc2ccc3c(c2)OCO3)c2ccc(F)cc2)cc1 (stereo not given) |
| – | < 40 | COc1ccc(N(Cc2ccc(O[C@H](Cc3ccccc3)C(=O)O)cc2)C(=O)c2ccc3c(c2)OCO3)cc1 |
